Type in all cases: cell-based
What all share (details): relative growth vs active compound-free control (100%), absorption at 405 nm 7 days after inoculation, 18°C

For experiment [1], the system named is Pyricularia oryzae.
Experiment [2] relates to Botrytis cinerea. Nature of the experiment: Activity against the grey mold Botrytis cinerea in the microtiterplate test (Botrci).
The test system of experiment [3] is Septoria tritici. Nature of the experiment: Activity against leaf blotch on wheat caused by Septoria tritici (Septtr), microtiter plate test.

Turning to `OC(Cn1cncn1)c1ccc(Oc2ccc(Cl)cc2)c(Cl)c1` (centres unmarked) [Compound I-2, 1-[3-Chloro-4-(4-chlorophenoxy)phenyl]-2-(1,2,4-triazol-1-yl)ethanol], the “Growth (%) at 31 ppm Pyrior” value in experiment [1] was 1%. Further, the “Growth (%) at 31 ppm Botrci” value in experiment [2] stood at 13%.

As to `COC(C)(Cn1cncn1)c1ccc(Oc2ccc(Cl)cc2)c(Cl)c1` (centres unmarked) [Compound I-3, 1-[2-[3-chloro-4-(4-chlorophenoxy)phenyl]-2-methoxy-propyl]-1,2,4-triazole], in experiment [1], the “Growth (%) at 31 ppm Pyrior” value turned out to be 0%.

As for `CC(O)(Cn1cncn1)c1ccc(Oc2ccc(Cl)cc2)c(Cl)c1` (centres unmarked) [Compound I-4, 2-[3-chloro-4-(4-chlorophenoxy)phenyl]-1-(1,2,4-triazol-1-yl)propan-2-ol], the “Growth (%) at 31 ppm Pyrior” value in experiment [1] worked out at 0%. Further, the “Growth (%) at 31 ppm Botrci” value in experiment [2] was determined as 17%.

On to `CC(O)(Cn1cncn1)c1ccc(Oc2ccc(Cl)cc2)c(C(F)(F)F)c1` (centres unmarked) [Compound I-5], for which, in experiment [1], the “Growth (%) at 31 ppm Pyrior” value was 0%. Further, in experiment [3], the “Growth (%) at 31 ppm Septtr” value stood at 14%.

As to `COC(C)(Cn1cncn1)c1ccc(Oc2ccc(Cl)cc2)c(C(F)(F)F)c1` (centres unmarked) [Compound I-6], in experiment [1], the “Growth (%) at 31 ppm Pyrior” value was found to be 0%.

For the origin of these results see patent EP2735563A1, “Meta substituted 2-[phenoxy-phenyl]-1-[1,2,4]triazol-1-yl-ethanol compounds and their use as fungicides” (BASF SE, priority 2012, dated 2014).
